According to patent US20240261308A1, “TREATMENT OF SKIN CONDITIONS USING HIGH KRAFFT TEMPERATURE ANIONIC SURFACTANTS” (ARCUTIS BIOTHERAPEUTICS, INC., priority 2020, published 2024):

Test: Krafft temperature determination of dilute aqueous surfactant in a water bath (dissolution and frothing)
Type: physicochemical
Settings: 0.012% ceteth-10 phosphate, 0.017% dicetyl phosphate, 0.014% sodium cetostearyl sulfate in distilled water
Description: 0.0012 grams of ceteth-10 phosphate (Moravek Lot 671-144-000-A-20190821-JHO) was weighed into a 20 mL glass scintillation vial. 10.0113 grams of distilled water was added to the scintillation vial and the vial was tightly capped and placed in a water bath. […] The surfactant remained as waxy particles sedimented on the bottom of the vial. After equilibration at 53.0° C. for 435 minutes, ceteth-10 phosphate had dissolved and the sample frothed when shaken. The Krafft temperature of a 0.012% ceteth-10 phosphate aqueous solution was determined to be 53.0° C.
0.0019 grams of dicetyl phosphate (Sigma dihexadecyl phosphate lot STBH2863) was weighed into a 20 mL glass scintillation vial. 11.2262 grams of distilled water was added to the scintillation vial and the vial was tightly capped and placed in a water bath. […] After equilibration at 58.0° C. for 450 minutes, dicetyl phosphate had dissolved and the sample frothed when shaken. The Krafft temperature of a 0.017% dicetyl phosphate aqueous solution was determined to be 58.0° C.
0.0024 grams of sodium cetostearyl sulfate (BASF Lanette E Granules Lot 0021826181) was weighed into a 20 mL glass scintillation vial. 17.0763 grams of distilled water was added to the scintillation vial and the vial was tightly capped and placed in a water bath. […] The Krafft temperature of a 0.014% sodium cetostearyl sulfate aqueous solution was determined to be 41.0° C.

Molecule | Krafft Temperature [°C]
ceteth-10 phosphate [Ceteth - 10 phosphate] | 53

Same assay, conditions: 0.012% ceteth-10 phosphate, 0.017% dicetyl phosphate, 0.014% sodium cetostearyl sulfate in distilled water; listed as ceteth-10 phosphate

Molecule | Krafft Temperature [°C]
ceteth-10 phosphate [Ceteth - 10 phosphate] | 53

Test: not given
Settings: commonly used anionic surfactants, table values; cited from earlier work

Molecule | Krafft Temperature [°C]
CCCCCCCCCCCCOS(=O)(=O)O.N [Ammonium lauryl sulfate (ALS), Ammonium lauryl sulfate] | 10
CCCCCCCCCCCCCCCCOS(=O)(=O)[O-].[Na+] [Sodium cetyl sulfate] | 45.0
CCCCCCCCCCOS(=O)(=O)[O-].[Na+] [Sodium decyl sulfate] | 8.0
CCCCCCCCCCCCCCCCS(=O)(=O)[O-].[Na+] [Sodium hexadecyl sulfonate] | 57.0
CCCCCCCCCCCCOS(=O)(=O)[O-].[Na+] [Sodium lauryl sulfate (SLS), Sodium lauryl sulfate] | 16.0
CCCCCCCCCCCCCC(=O)[O-].[Na+] [Sodium myristate] | 39
CCCCCCCCCCCCCCOS(=O)(=O)[O-].[Na+] [Sodium myristyl sulfate] | 30.0
CCCCCCCCCCCCCCS(=O)(=O)[O-].[Na+] [Sodium myristyl sulfonate] | 48.0
CCCCCCCCCCCCCCCC(=O)[O-].[Na+] [Sodium palmitate] | 69
CCCCCCCCCCCCCCCCCC(=O)[O-].[Na+] [Sodium stearate] | 71
CCCCCCCCCCCCCCCCCCOS(=O)(=O)[O-].[Na+] [Sodium stearyl sulfate] | 56.0
Sodium laureth sulfate [Sodium laureth sulfate (SLES)] | <0
